Assay results reported in ChEMBL document CHEMBL1146611, “Design and synthesis of novel pyrrolidine-containing bradykinin antagonists” (Bioorg Med Chem Lett, 2003).

How the values were obtained:
[1] = molecular target: T1, B2 bradykinin receptor (Homo sapiens) (UniProt P30411); assay: In vitro binding affinity against Bradykinin receptor B2 at 1 uM concentration
T1 sequence (whole entry): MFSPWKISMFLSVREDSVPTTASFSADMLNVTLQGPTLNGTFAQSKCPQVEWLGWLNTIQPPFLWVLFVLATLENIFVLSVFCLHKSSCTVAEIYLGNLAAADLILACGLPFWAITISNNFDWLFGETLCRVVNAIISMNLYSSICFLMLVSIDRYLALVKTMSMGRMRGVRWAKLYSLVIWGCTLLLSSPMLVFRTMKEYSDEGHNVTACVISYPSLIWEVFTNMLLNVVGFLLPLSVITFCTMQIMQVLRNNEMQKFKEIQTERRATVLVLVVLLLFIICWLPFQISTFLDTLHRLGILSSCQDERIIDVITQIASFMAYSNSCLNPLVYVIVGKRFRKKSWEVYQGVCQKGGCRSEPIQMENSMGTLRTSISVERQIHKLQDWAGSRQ

[2] = molecular target: T2, B1 bradykinin receptor (Homo sapiens) (UniProt P46663); assay: In vitro binding affinity against Bradykinin receptor B1 at 1 uM concentration
T2 sequence (whole entry): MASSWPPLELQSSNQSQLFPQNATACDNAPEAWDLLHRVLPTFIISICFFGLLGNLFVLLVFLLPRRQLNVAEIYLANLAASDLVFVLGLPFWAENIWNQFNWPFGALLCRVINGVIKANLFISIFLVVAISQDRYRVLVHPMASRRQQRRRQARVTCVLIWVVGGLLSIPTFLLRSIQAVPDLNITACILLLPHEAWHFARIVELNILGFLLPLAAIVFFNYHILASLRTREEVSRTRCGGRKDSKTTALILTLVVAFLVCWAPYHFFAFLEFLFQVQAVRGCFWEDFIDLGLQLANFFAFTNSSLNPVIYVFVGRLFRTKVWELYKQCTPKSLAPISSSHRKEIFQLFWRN

B2 bradykinin receptor = molecular target: T3, B2 bradykinin receptor (Homo sapiens, UniProt P30411); assay: In vitro binding affinity against Bradykinin receptor B2
T3 sequence (P30411 whole entry): T1 sequence (whole entry)

SMILES: Cc1ccc2cccc(OCc3c(C)ccc(N4CCC[C@H]4CN4C(=O)c5ccccc5C4=O)c3C)c2n1
- inhibition [1]: 8%
- inhibition [2]: 5%

SMILES: Cc1ccc2cccc(OCc3c(C)ccc(N4CCC[C@@H]4CO)c3C)c2n1
- inhibition [1]: 12%
- inhibition [2]: 9%

SMILES: Cc1ccc2cccc(OCc3c(C)ccc(N4CCC[C@H]4CO)c3C)c2n1
- inhibition [1]: 19%
- inhibition [2]: 1%

SMILES: Cc1ccc2cccc(OCc3c(C)ccc(N4CCC[C@H]4C(=O)O)c3C)c2n1
- inhibition [1]: 19%
- inhibition [2]: 6%

SMILES: CC(=O)Nc1ccc(/C=C/C(=O)NC[C@H]2CCCN2c2ccc(C)c(COc3cccc4ccc(C)nc34)c2C)cn1
- Ki (B2 bradykinin receptor): 46 nM
- inhibition [1]: 76%
- inhibition [2]: 1%

SMILES: Cc1ccc2cccc(OCc3c(C)ccc(N4CCC[C@@H]4C(=O)O)c3C)c2n1
- inhibition [1]: 11%
- inhibition [2]: 1%

SMILES: CC(=O)Nc1ccc(/C=C/C(=O)NC[C@@H]2CCCN2c2ccc(C)c(COc3cccc4ccc(C)nc34)c2C)cn1
- Ki (B2 bradykinin receptor): 33 nM
- inhibition [1]: 84%
- inhibition [2]: 1%

SMILES: Cc1ccc2cccc(OCc3c(C)ccc(N4CCC[C@@H]4CN4C(=O)c5ccccc5C4=O)c3C)c2n1
- inhibition [1]: 8%
- inhibition [2]: 1%
